What was measured:
[1] = target: Bromodomain-containing protein 4 (Homo sapiens, UniProt O60885); assay: Inhibition of human His tagged BRD4-BD1 incubated for 30 mins followed by addition of biotinylated peptide and further incubation for 30 mins measured by AlphaScreen assay
[2] = target: T1, ATPase family AAA domain-containing protein 2 (Homo sapiens, UniProt Q6PL18); assay: Inhibition of human ATAD2A expressed in Escherichia coli BL21 after 1 hr by BROMOscan assay
T1 sequence (Q6PL18 whole entry): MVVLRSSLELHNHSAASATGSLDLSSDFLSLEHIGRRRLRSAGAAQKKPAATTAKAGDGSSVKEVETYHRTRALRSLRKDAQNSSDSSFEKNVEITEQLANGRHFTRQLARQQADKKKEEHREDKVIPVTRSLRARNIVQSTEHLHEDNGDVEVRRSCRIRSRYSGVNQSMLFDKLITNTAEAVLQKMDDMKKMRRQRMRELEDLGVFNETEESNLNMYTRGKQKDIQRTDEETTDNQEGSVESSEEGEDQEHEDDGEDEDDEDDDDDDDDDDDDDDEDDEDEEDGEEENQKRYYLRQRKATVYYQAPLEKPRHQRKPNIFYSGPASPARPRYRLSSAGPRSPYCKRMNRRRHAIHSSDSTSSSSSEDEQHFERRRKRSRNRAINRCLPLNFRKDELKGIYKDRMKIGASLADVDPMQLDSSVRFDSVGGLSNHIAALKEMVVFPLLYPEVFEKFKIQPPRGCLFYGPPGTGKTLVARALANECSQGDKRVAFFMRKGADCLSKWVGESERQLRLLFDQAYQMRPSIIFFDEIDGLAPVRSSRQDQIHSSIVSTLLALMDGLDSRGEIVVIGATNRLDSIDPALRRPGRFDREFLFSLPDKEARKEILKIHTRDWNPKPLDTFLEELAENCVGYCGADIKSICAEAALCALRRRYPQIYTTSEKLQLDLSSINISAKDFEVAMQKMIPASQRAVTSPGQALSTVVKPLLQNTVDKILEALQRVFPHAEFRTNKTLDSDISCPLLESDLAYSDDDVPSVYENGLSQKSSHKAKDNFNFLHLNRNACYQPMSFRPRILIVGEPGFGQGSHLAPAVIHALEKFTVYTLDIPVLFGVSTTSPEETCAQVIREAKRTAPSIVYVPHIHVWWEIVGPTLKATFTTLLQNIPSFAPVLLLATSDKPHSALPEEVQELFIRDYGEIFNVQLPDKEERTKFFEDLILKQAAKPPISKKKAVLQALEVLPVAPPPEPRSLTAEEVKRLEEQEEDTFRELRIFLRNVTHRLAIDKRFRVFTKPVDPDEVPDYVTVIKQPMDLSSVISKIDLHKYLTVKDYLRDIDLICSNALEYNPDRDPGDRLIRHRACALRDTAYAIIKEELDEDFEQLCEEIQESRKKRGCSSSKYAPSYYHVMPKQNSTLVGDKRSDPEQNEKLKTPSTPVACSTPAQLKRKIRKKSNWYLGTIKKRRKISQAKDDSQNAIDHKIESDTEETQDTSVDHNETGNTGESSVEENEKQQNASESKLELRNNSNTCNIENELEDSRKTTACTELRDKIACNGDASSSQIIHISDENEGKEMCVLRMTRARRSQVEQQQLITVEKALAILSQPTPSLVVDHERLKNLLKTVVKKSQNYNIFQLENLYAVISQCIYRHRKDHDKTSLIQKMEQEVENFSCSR

[3] = target: Bromodomain-containing protein 7 (Homo sapiens, UniProt Q9NPI1); assay: Inhibition of human BRD7 expressed in Escherichia coli BL21 after 1 hr by BROMOscan assay
Sequence of Bromodomain-containing protein 7 (Q9NPI1 whole entry): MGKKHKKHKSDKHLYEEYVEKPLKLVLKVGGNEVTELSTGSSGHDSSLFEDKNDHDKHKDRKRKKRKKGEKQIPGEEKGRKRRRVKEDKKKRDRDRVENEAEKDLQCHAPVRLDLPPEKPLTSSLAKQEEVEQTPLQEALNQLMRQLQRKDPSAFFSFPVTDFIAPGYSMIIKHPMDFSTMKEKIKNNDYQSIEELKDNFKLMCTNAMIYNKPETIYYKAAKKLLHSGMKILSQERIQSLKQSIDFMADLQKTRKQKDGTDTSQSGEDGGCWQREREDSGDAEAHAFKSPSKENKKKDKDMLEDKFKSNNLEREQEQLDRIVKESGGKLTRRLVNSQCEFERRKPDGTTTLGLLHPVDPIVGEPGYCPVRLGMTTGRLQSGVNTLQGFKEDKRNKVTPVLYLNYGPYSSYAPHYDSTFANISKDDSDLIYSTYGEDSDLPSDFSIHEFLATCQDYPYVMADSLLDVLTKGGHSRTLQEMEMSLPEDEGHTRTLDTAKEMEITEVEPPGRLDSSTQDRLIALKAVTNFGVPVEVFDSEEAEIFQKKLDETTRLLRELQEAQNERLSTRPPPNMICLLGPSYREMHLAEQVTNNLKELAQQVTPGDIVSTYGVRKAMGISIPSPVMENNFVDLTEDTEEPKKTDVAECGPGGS

[4] = target: Transcription initiation factor TFIID subunit 1, TAF1 (Homo sapiens) (UniProt P21675); assay: Inhibition of human His tagged TAF1 incubated for 30 mins followed by addition of biotinylated peptide and further incubation for 30 mins measured by AlphaScreen assay
Sequence of Transcription initiation factor TFIID subunit 1, TAF1 (Homo sapiens) (P21675 whole entry, looked up): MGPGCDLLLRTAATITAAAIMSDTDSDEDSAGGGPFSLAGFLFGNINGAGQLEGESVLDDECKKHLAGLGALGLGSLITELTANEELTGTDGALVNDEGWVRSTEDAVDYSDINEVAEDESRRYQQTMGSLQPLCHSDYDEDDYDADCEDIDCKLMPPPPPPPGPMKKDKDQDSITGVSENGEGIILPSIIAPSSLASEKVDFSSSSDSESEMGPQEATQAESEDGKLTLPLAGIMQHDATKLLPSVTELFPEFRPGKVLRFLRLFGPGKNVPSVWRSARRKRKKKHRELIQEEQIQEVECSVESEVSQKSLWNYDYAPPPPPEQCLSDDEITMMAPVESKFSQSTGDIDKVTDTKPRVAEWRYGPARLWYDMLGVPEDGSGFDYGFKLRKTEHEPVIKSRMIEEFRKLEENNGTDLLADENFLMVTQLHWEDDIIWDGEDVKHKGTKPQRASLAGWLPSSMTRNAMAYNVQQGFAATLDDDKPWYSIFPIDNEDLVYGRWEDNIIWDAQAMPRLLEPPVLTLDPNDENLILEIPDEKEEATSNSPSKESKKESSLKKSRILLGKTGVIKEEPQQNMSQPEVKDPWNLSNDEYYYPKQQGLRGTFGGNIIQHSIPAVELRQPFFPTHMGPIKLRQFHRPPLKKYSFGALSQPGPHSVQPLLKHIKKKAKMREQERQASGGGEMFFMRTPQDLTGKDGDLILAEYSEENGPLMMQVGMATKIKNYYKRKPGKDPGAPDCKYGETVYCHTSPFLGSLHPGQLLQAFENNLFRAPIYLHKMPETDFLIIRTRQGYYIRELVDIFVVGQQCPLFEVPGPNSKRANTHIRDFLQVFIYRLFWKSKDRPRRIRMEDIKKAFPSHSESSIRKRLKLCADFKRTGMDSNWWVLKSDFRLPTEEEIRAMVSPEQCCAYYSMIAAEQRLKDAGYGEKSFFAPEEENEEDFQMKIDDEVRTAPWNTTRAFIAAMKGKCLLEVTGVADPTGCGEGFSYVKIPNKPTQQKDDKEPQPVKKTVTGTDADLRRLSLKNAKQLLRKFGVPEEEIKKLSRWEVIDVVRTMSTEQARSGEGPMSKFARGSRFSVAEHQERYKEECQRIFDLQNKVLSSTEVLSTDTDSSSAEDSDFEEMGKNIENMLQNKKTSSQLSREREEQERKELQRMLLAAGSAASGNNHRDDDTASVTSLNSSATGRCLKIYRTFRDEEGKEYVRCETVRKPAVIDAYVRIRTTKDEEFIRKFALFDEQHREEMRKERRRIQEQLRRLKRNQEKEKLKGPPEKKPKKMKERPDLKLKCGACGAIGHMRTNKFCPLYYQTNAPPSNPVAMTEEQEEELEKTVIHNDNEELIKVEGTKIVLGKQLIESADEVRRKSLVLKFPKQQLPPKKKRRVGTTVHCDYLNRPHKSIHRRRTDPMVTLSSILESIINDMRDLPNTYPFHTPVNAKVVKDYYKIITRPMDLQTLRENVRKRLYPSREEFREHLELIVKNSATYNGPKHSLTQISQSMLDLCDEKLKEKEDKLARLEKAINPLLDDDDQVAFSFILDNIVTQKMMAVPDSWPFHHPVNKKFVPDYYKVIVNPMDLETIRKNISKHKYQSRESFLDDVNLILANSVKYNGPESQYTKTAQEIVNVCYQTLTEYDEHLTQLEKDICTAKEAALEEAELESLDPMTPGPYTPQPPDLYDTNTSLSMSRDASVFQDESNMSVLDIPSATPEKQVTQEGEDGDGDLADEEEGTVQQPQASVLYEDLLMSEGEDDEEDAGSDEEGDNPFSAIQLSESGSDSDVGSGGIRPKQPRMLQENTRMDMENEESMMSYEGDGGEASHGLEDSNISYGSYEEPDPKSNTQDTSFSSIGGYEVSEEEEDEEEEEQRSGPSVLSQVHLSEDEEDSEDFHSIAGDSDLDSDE

Peregrin (Homo sapiens) = target: T2, Peregrin (Homo sapiens) (UniProt P55201)
T2 sequence (whole entry): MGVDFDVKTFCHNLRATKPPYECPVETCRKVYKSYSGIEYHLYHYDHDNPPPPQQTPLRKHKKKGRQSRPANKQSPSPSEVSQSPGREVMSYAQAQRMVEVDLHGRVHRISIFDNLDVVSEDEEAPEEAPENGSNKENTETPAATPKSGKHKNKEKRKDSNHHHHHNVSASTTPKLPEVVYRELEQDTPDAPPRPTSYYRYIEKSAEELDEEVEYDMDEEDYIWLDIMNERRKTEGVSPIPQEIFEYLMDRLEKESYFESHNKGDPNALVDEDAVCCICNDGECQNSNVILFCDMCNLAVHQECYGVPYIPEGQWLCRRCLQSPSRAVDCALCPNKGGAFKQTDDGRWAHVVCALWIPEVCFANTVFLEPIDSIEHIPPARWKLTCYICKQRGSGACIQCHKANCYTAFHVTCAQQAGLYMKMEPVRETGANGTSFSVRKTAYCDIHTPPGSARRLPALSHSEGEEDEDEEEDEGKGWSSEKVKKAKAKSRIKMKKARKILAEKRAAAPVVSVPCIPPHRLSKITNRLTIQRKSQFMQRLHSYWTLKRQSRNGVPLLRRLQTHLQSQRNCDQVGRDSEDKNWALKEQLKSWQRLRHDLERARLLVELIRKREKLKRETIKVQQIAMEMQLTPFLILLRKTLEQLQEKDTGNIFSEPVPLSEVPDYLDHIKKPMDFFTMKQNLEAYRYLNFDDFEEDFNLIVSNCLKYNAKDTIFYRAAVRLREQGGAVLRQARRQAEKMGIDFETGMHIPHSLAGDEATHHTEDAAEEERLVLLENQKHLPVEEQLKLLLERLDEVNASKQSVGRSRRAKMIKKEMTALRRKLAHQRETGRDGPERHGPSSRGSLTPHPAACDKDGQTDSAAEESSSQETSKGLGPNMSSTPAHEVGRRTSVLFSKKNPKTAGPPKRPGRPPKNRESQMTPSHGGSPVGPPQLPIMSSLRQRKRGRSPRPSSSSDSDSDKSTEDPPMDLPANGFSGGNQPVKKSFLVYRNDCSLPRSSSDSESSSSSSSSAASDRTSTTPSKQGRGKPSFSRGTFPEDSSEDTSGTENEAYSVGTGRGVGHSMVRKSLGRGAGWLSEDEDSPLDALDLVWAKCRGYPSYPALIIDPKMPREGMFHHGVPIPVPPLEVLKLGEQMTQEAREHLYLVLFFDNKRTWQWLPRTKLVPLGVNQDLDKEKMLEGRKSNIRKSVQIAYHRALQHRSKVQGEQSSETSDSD

THP-1 = assay: Growth inhibition of human THP1 cells after 72 hrs; assay type: functional; details: THP-1, 72 h

Row | IC50 [1] | IC50 [2] | IC50 [3] | IC50 [4] | GI50 (THP-1) | Compound | ΔTm (Peregrin (Homo sapiens))
1 | > 20 µM | > 100 µM | > 100 µM | > 20 µM |  | CCc1cc2cc(NS(=O)(=O)c3ccc(C#N)cc3)ccc2n(CC)c1=O | 
2 |  |  |  |  |  | Cc1cc(C#N)ccc1S(=O)(=O)Nc1ccc2c(ccc(=O)n2C)c1 | 6.5 °C
3 | > 20 µM | > 100 µM | 0.082 µM |  | 5.7 µM | Cc1cc2cc(NS(=O)(=O)c3ccc(C#N)cc3)ccc2n(C)c1=O | 
4 |  |  |  |  |  | Cn1c(=O)ccc2cc(NS(=O)(=O)c3ccc(C#N)c(Cl)c3)ccc21 | 4.3 °C

Source: ChEMBL document CHEMBL4052588, “Design of a Biased Potent Small Molecule Inhibitor of the Bromodomain and PHD Finger-Containing (BRPF) Proteins Suitable for Cellular and in Vivo Studies” (J Med Chem, 2017)
